Results: PMC9412861, “Understanding the pH Dependence of Supersaturation State—A Case Study of Telmisartan” (Pharmaceutics, 2022)
Like-named read-outs stand apart in the source and are kept apart here.

Assays:
[1] = Thermodynamic (equilibrium) solubility, saturation shake-flask, in Prisma HT buffer; assay type: physicochemical; settings: thermodynamic from solid
Method: The methods for thermodynamic solubility measurements can be found in Baka et al. (measured amount of TEL: 1 mg/mL, 37 °C, 6 h strirring, 18 h sedimentation). During the thermodynamic solubility measurements in Prisma buffers the concentration of the API was determined without filtering the solutions by the Rainbow Dynamic Dissolution Monitor instrument (Pion Inc., Billerica, MA, USA). In the case of solubility measurements in distilled water, the concentration of the API after filtration with PVDF membrane (0.22 µm) was determined by Jasco V-550 UV–vis spectrophotometer (Jasco Inc., Easton, MD, USA).

[2] = Kinetic solubility measurement (µDISS profiler); assay type: physicochemical
Method: The kinetic solubility measurements of TEL were determined using µDISS™ profiler (Pion Inc., Billerica, MA, USA). The method was described earlier by Kadar et al..

Compound: CCCc1nc2c(C)cc(-c3nc4ccccc4n3C)cc2n1Cc1ccc(-c2ccccc2C(=O)O)cc1 [Telmisartan, telmisartan]
- solubility thermodynamic at 6 h ([1]; aqueous buffer, pH 2.15, 37 °C, read-out: Equilibrium solubility S ± SD): 119 ± 11.8 µg/mL
- solubility thermodynamic at 6 h ([1]; aqueous buffer, pH 2.15, 37 °C, read-out: Equilibrium solubility logS ± SD (converted)): 229 µM
- solubility thermodynamic at 6 h ([1]; aqueous buffer, pH 3.08, 37 °C, read-out: Equilibrium solubility S ± SD): 13.1 ± 1.73 µg/mL
- solubility thermodynamic at 6 h ([1]; aqueous buffer, pH 3.08, 37 °C, read-out: Equilibrium solubility logS ± SD (converted)): 25.1 µM
- solubility thermodynamic at 6 h ([1]; aqueous buffer, pH 3.82, 37 °C, read-out: Equilibrium solubility S ± SD): 3.62 ± 0.59 µg/mL
- solubility thermodynamic at 6 h ([1]; aqueous buffer, pH 3.82, 37 °C, read-out: Equilibrium solubility logS ± SD (converted)): 7.08 µM
- solubility thermodynamic at 6 h ([1]; aqueous buffer, pH 7.88, 37 °C, read-out: Equilibrium solubility S ± SD): 11.5 ± 0.26 µg/mL
- solubility thermodynamic at 6 h ([1]; aqueous buffer, pH 7.88, 37 °C, read-out: Equilibrium solubility logS ± SD (converted)): 22.4 µM
- solubility thermodynamic at 6 h ([1]; aqueous buffer, pH 9.00, 37 °C, read-out: Equilibrium solubility S ± SD): 130 ± 2.73 µg/mL
- solubility thermodynamic at 6 h ([1]; aqueous buffer, pH 9.00, 37 °C, read-out: Equilibrium solubility logS ± SD (converted)): 251 µM
- solubility thermodynamic at 6 h ([1]; aqueous buffer, pH 9.79, 37 °C, read-out: Equilibrium solubility S ± SD): 1470 ± 255 µg/mL
- solubility thermodynamic at 6 h ([1]; aqueous buffer, pH 9.79, 37 °C, read-out: Equilibrium solubility logS ± SD (converted)): 2880 µM
- solubility thermodynamic at 6 h ([1]; aqueous buffer, pH 11.74, 37 °C, read-out: Equilibrium solubility S ± SD): 2250 ± 145 µg/mL
- solubility thermodynamic at 6 h ([1]; aqueous buffer, pH 11.74, 37 °C, read-out: Equilibrium solubility logS ± SD (converted)): 4370 µM
- solubility thermodynamic at 6 h ([1]; pH 1.6, aqueous buffer, pH 1.60, 37 °C, read-out: Equilibrium solubility S ± SD): 150 ± 38 µg/mL
- solubility thermodynamic at 6 h ([1]; pH 1.6, aqueous buffer, pH 1.60, 37 °C, read-out: Equilibrium solubility logS ± SD (converted)): 288 µM
- solubility thermodynamic at 6 h ([1]; pH 2.5, aqueous buffer, pH 2.50, 37 °C, read-out: Equilibrium solubility S ± SD): 17 ± 0.72 µg/mL
- solubility thermodynamic at 6 h ([1]; pH 2.5, aqueous buffer, pH 2.50, 37 °C, read-out: Equilibrium solubility logS ± SD (converted)): 47.9 µM
- solubility thermodynamic at 6 h ([1]; pH 6.5, aqueous buffer, pH 6.50, 37 °C, read-out: Equilibrium solubility S ± SD): 0.79 ± 0.16 µg/mL
- solubility thermodynamic at 6 h ([1]; pH 6.5, aqueous buffer, pH 6.50, 37 °C, read-out: Equilibrium solubility logS ± SD (converted)): 1.58 µM
- solubility thermodynamic at 6 h ([1]; pH 9.4, aqueous buffer, pH 9.40, 37 °C, read-out: Equilibrium solubility S ± SD): 275 ± 9.4 µg/mL
- solubility thermodynamic at 6 h ([1]; pH 9.4, aqueous buffer, pH 9.40, 37 °C, read-out: Equilibrium solubility logS ± SD (converted)): 537 µM
- pH range of minimal kinetic solubility ([2]; Prisma HT buffer, 37 °C): 3–6
- pH range in which a supersaturated solution is formed ([2]; based on kinetic solubility results): 3–8
- difference between thermodynamic and kinetic solubility ([2]; more acidic pHs (below pH 3)): no significant difference
- difference between thermodynamic and kinetic solubility ([2]; pH = 3 to pH = 8): near two-magnitude difference
